Legend:
Type in all cases: in vivo
Settings in all cases: 500 g/h, evaluated after 13 days
Setaria faberi (SETFA) [1] = test: Pre-emergence herbicidal glasshouse test, Setaria faberi (SETFA)
Experimental: (§1) Seeds of a variety of test species are sown in standard soil in pots (Lolium perenne (LOLPE), Amaranthus retoflexus (AMARE), Abutilon theophrasti (ABUTH), Setaria faberi (SETFA), Echinochloa crus-galli (ECHCG), Ipomoea hederacea (IPOHE)). After cultivation for one day (pre-emergence) or after 8 days cultivation (post-emergence) under controlled conditions in a glasshouse (at 24/16° C., day/night; 14 hours light; 65% humidity), the plants are sprayed with an aqueous spray solution derived from the formulation of the technical active ingredient in acetone/water (50:50) solution containing 0.5% Tween 20 (polyoxyethelyene sorbitan monolaurate, CAS RN 9005-64-5). Compounds are applied at 500 g/h unless otherwise indicated. The test plants are then grown in a glasshouse under controlled conditions in a glasshouse (at 24/16° C., day/night; 14 hours light; 65% humidity) and watered twice daily. After 13 days for pre and post-emergence, the test is evaluated for the percentage damage caused to the plant. The biological activities are shown in the following table on a five point scale (5=80-100%; 4=60-79%; 3=40-59%; 2=20-39%; 1=0-19%).

[2] = system: Ipomoea hederacea (IPOHE); test: Pre-emergence herbicidal glasshouse test, Ipomoea hederacea (IPOHE)
Experimental: as §1

[3] = system: Echinochloa crus-galli (ECHCG); test: Pre-emergence herbicidal glasshouse test, Echinochloa crus-galli (ECHCG)
Experimental: as §1

Setaria faberi (SETFA) [4] = test: Post-emergence herbicidal glasshouse test, Setaria faberi (SETFA)
Experimental: as §1

[5] = system: Echinochloa crus-galli (ECHCG); test: Post-emergence herbicidal glasshouse test, Echinochloa crus-galli (ECHCG)
Experimental: as §1

[6] = system: Abutilon theophrasti (ABUTH); test: Post-emergence herbicidal glasshouse test, Abutilon theophrasti (ABUTH)
Experimental: as §1

[7] = system: Amaranthus retoflexus (AMARE); test: Post-emergence herbicidal glasshouse test, Amaranthus retoflexus (AMARE)
Experimental: as §1

[8] = system: Ipomoea hederacea (IPOHE); test: Post-emergence herbicidal glasshouse test, Ipomoea hederacea (IPOHE)
Experimental: as §1

[9] = system: Abutilon theophrasti (ABUTH); test: Pre-emergence herbicidal glasshouse test, Abutilon theophrasti (ABUTH)
Experimental: as §1

[10] = system: Amaranthus retoflexus (AMARE); test: Pre-emergence herbicidal glasshouse test, Amaranthus retoflexus (AMARE)
Experimental: as §1

SMILES | PRE Application SETFA, percentage damage (five point scale) (Setaria faberi (SETFA) [1]) | PRE Application IPOHE, percentage damage (five point scale) [2] | PRE Application ECHCG, percentage damage (five point scale) [3] | POST Application SETFA, percentage damage (five point scale) (Setaria faberi (SETFA) [4]) | POST Application ECHCG, percentage damage (five point scale) [5] | POST Application ABUTH, percentage damage (five point scale) [6] | POST Application AMARE, percentage damage (five point scale) [7] | POST Application IPOHE, percentage damage (five point scale) [8] | PRE Application ABUTH, percentage damage (five point scale) [9] | PRE Application AMARE, percentage damage (five point scale) [10]
CCN(C)C=Nc1c(S(C)(=O)=O)ccc(C(=O)Nc2nnnn2C)c1C [Compound 1.027] | 5 (5=80-100%) | 5 (5=80-100%) | 5 (5=80-100%) | 5 (5=80-100%) | 5 (5=80-100%) | 5 (5=80-100%) | 5 (5=80-100%) | 5 (5=80-100%) | 5 (5=80-100%) | 5 (5=80-100%)
CCN(C)C=Nc1c(S(C)(=O)=O)ccc(C(=O)Nc2nnc(C)o2)c1C [Compound 2.027] | 5 (5=80-100%) | 4 (4=60-79%) | 5 (5=80-100%) | 5 (5=80-100%) | 5 (5=80-100%) | 5 (5=80-100%) | 5 (5=80-100%) | 5 (5=80-100%) | 5 (5=80-100%) | 5 (5=80-100%)
Cc1nnc(NC(=O)c2ccc(S(C)(=O)=O)c(N=CN(C)C)c2C)o1 [Compound 2.025] | 5 (5=80-100%) | 3 (3=40-59%) | 5 (5=80-100%) | 5 (5=80-100%) | 5 (5=80-100%) | 5 (5=80-100%) | 5 (5=80-100%) | 5 (5=80-100%) | 5 (5=80-100%) | 5 (5=80-100%)
CC(=NOCc1c(S(C)(=O)=O)ccc(C(=O)Nc2nnc(C)o2)c1Cl)N(C)C [Compound 2.129] | 3 (3=40-59%) | 2 (2=20-39%) | 3 (3=40-59%) | 5 (5=80-100%) | 5 (5=80-100%) | 5 (5=80-100%) | 5 (5=80-100%) | 5 (5=80-100%) | 5 (5=80-100%) | 5 (5=80-100%)
CN(C=Nc1c(C(F)(F)F)ccc(C(=O)Nc2nnnn2C)c1Cl)c1ccccc1 [Compound 1.131] | 5 (5=80-100%) | 5 (5=80-100%) | 5 (5=80-100%) | 5 (5=80-100%) | 5 (5=80-100%) | 5 (5=80-100%) | 5 (5=80-100%) | 5 (5=80-100%) | 5 (5=80-100%) | 5 (5=80-100%)
Cc1nnc(NC(=O)c2ccc(C(F)(F)F)c(N=CN(C)C(C)C)c2Cl)o1 [Compound 2.140] | 5 (5=80-100%) | 4 (4=60-79%) | 5 (5=80-100%) | 5 (5=80-100%) | 5 (5=80-100%) | 5 (5=80-100%) | 5 (5=80-100%) | 4 (4=60-79%) | 5 (5=80-100%) | 5 (5=80-100%)
CCN(C=Nc1c(C(F)(F)F)ccc(C(=O)Nc2nnc(C)o2)c1Cl)CC [Compound 2.055] | 5 (5=80-100%) | 5 (5=80-100%) | 5 (5=80-100%) | 5 (5=80-100%) | 5 (5=80-100%) | 4 (4=60-79%) | 5 (5=80-100%) | 4 (4=60-79%) | 5 (5=80-100%) | 5 (5=80-100%)
Cc1c(C(=O)Nc2nnnn2C)ccc(S(C)(=O)=O)c1N=CN(C)C(C)C [Compound 1.144] | 5 (5=80-100%) | 5 (5=80-100%) | 5 (5=80-100%) | 5 (5=80-100%) | 5 (5=80-100%) | 5 (5=80-100%) | 5 (5=80-100%) | 5 (5=80-100%) | 5 (5=80-100%) | 5 (5=80-100%)
CC(=Nc1c(C(F)(F)F)ccc(C(=O)Nc2nnc(C)o2)c1Cl)N(C)C [Compound 2.148] | 5 (5=80-100%) | 5 (5=80-100%) | 5 (5=80-100%) | 5 (5=80-100%) | 5 (5=80-100%) | 5 (5=80-100%) | 5 (5=80-100%) | 3 (3=40-59%) | 5 (5=80-100%) | 5 (5=80-100%)
Cc1c(C(=O)C2=C(O)CCCC2=O)ccc(C(F)(F)F)c1N=CN(C)C [Compound 3.017] | 4 (4=60-79%) | 5 (5=80-100%) | 5 (5=80-100%) | 5 (5=80-100%) | 5 (5=80-100%) | 5 (5=80-100%) | 3 (3=40-59%) | 5 (5=80-100%) | 5 (5=80-100%) | 5 (5=80-100%)

Source: patent US11272709B2, “Amidine substituted benzoyl derivatives useful as herbicides” (Syngenta Participations AG, priority 2018, dated 2022)
